# Reference: ChEMBL document CHEMBL4602666, “Nostotrebin 6 Related Cyclopentenediones and δ-Lactones with Broad Activity Spectrum Isolated from the Cultivation Medium of the Cyanobacterium Nostoc sp. CBT1153” (J Nat Prod, 2020)
# The source made the active and inactive calls. No cut-off for these calls is given here.
# Columns and labels:
# [1] = molecular target: Rhodesain (Trypanosoma brucei rhodesiense) (UniProt Q95PM0); assay: Inhibition of Trypanosoma brucei rhodesiense C-terminal full length rhodesain expressed in Pichia pastoris using Cbz-PheArg-AMC as substrate preincubated for 5 to 30 mins followed by substrate and measured every 30 sec for 10 mins by fluorescence based assay
# HeLa = assay: Cytotoxicity against human HeLa cells assessed as reduction in cell viability after 24 hrs by resazurin staining based fluorescence assay
# [2] = molecular target: Rhodesain (Trypanosoma brucei rhodesiense) (UniProt Q95PM0); assay: Inhibition of Trypanosoma brucei rhodesiense C-terminal full length rhodesain expressed in Pichia pastoris at 50 uM using Cbz-PheArg-AMC as substrate measured every 30 sec for 10 mins in presence of 4.75 mM DTT by fluorescence based assay
# Bacillus subtilis = assay: Antibacterial activity against Bacillus subtilis 168 assessed as reduction cell viability after 16 to 20 hrs by CLSI based two-fold serial dilution method; format: functional
# Rhodesain = Rhodesain (Trypanosoma brucei rhodesiense, UniProt Q95PM0); assay: Inhibition of Trypanosoma brucei rhodesiense C-terminal full length rhodesain expressed in Pichia pastoris using Cbz-PheArg-AMC as substrate measured every 30 sec for 10 mins by fluorescence based assay
# Enterococcus faecium = assay: Antibacterial activity against Enterococcus faecium BM4147-1 assessed as reduction cell viability after 16 to 20 hrs by CLSI based two-fold serial dilution method; format: functional
# [3] = molecular target: Rhodesain (Trypanosoma brucei rhodesiense) (UniProt Q95PM0); assay: Inhibition of Trypanosoma brucei rhodesiense C-terminal full length rhodesain expressed in Pichia pastoris at 50 uM using Cbz-PheArg-AMC as substrate measured every 30 sec for 10 mins in presence of 0.005 to 0.025 % of Brij-35 by fluorescence based assay
# Staphylococcus aureus = assay: Antibacterial activity against Staphylococcus aureus ATCC 29213 assessed as reduction cell viability after 16 to 20 hrs by CLSI based two-fold serial dilution method; format: functional
# Rhodesain (Trypanosoma brucei rhodesiense), sequence (Q95PM0 1-450): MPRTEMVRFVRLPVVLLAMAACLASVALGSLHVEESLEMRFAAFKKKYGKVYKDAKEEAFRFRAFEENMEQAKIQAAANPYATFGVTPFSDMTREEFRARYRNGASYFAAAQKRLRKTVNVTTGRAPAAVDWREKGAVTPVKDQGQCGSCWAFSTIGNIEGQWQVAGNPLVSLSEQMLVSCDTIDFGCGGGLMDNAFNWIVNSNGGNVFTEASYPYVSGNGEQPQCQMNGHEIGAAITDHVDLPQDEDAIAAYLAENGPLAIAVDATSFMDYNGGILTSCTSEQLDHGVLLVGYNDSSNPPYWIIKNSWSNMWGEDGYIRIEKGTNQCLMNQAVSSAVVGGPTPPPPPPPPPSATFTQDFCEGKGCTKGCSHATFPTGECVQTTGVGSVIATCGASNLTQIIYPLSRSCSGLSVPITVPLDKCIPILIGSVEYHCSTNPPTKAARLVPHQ
# Rhodesain, sequence (Q95PM0 whole entry): as the sequence (Q95PM0 1-450) above
SMILES,inhibition [1],IC50 (HeLa),inhibition [2],MIC (Bacillus subtilis),IC50 (Rhodesain),MIC (Enterococcus faecium),inhibition [3],MIC (Staphylococcus aureus)
O=C1C(Cc2ccc(O)cc2)=C(Cc2ccc(O)cc2)C(=O)C1(c1ccc(O)cc1)C1(c2ccc(O)cc2)C(=O)C(Cc2ccc(O)cc2)=C(Cc2ccc(O)cc2)C1=O,Active,16 µM,Active,13 µM,15 µM,13 µM,Active,13 µM
O=C1C(Cc2ccc(O)cc2)=C(Cc2ccc(O)cc2)C(=O)C1(c1ccc(O)cc1)c1cc(Cc2c(Cc3ccc(O)cc3)cc(-c3ccc(O)cc3)oc2=O)c(O)cc1O,,33 µM,,3 µM,33 µM,13 µM,,3 µM
O=c1oc(-c2ccc(O)cc2)cc(Cc2ccc(O)cc2)c1Cc1ccc(O)cc1O,,84 µM,,50 µM,63 µM,100 µM,,50 µM
